Series [1] has as its system platelet aggregation induced by ADP. Kind of series: Optical aggregometry in platelet-rich plasma, aggregation induced by ADP. It counts as cell-based, human. The settings on record: ADP (20 µM). The method, then:
Blood Collection and Preparation of Platelet-Rich Plasma: blood was collected from healthy and non-smoking volunteers (all volunteers have signed informed consent) into a polypropylene tube containing 0.105 M buffered sodium citrate. None of the donors had received any medication known to affect platelet function for at least 10 days before blood collection. Platelet-rich plasma (PRP) was collected by the centrifugation of whole blood at 150 g for 15 min at room temperature. Subsequently, platelet-poor plasma (PPP) was collected by the centrifugation at 2000 g for 20 min at room temperature. The platelet count was adjusted to 2x10^8 cells /ml with PPP.
Incubation of PRP with BLA and LA: PRP was incubated with BLA and LA (25, 50, and 100 µM) for 15 minutes at 37 °C. PRP without any compound was used as a control.
Optical Aggregometry in Platelet-Rich Plasma: the measurement of platelet aggregation in PRP was performed using four-channel aggregometer (APACT 4004; LABiTec, Ahrensburg, Germany). After the incubation of PRP with three different compounds, platelet aggregation was stimulated by ADP (20 µM) and Collagen (10 µg/mL) and percentage of aggregation was monitored for 10 minutes. The percentage of aggregation, slope and shape change parameters were monitored for 10 minutes. Assay was started 1 hour after blood was collected and finished within 3 hours (Hao HZ, He AD, Wang DC, Yin Z, Zhou YJ, Liu G, Liang ML, Da XW, Yao GQ, Xie W, Xiang JZ, Ming ZY. Antiplatelet activity of loureirin A by attenuating Akt phosphorylation: In vitro studies. Eur. J. Pharmacol. 2015; 746:63-9).

Series [2] relates to cultured human lymphocytes. Put plainly: SCE assay (genotoxicity). It counts as cell-based. As for the experimental part:
All volunteers have signed informed consent.
SCE assay: to provide successive visualization of SCEs, 5-bromo-2-deoxyuridine was added at culture cells. Exactly 70 h and 30 min after beginning of the incubations, demecolcine ([…]) was added to the cultures. After hypotonic treatment (0.075 M KCl), followed by three repetitive cycles of fixation in methanol/acetic acid solution (3:1, v/v), centrifugation and re-suspension, the cell suspension was dropped onto chilled, grease-free microscopic slides, air-dried, aged for three days, and then differentially stained for the inspection of the SCE rate according to the fluorescence plus Giemsa (FPG) procedure. For each treatment condition, well-spread twenty-five second division metaphases containing 42-46 chromosomes per cell were scored and the values obtained were calculated as SCEs per cell.
The frequencies of sister chromatid exchanges (SCEs) with increasing BLA concentrations were investigated in cultured human lymphocytes.

For series [3], the system named is differentiated SH-SY5Y human neuroblastoma cells. Kind of series: LDH assay, neuroprotective effects against Aβ1-42 cytotoxicity. Particulars: with 20 µM Aβ1-42, 24 h. It counts as cell-based. As for the experimental part: Cell cultures and differentiation: SH-SY5Y cell line were growth in DMEM:F12 (1:1) media including 10% FBS and 1% penicillin/streptomycin at 37 °C and 5% CO2 until cells reach confluence. Then, cells harvested via using trypsin/EDTA solution and transferred to 48 well plates. For differentiation, media were changed to supplemented media with 10 µg/mL retinoic acid and incubated for 5 days. Finally, media were changed into serum free media supplementing with both 10 µM retinoic acid and 25 ng/mL BDNF.
Cytotechnol. 2015; 67:299-309.
(§1) Control cells (n = 6) were cultured under normal conditions. 1% Triton X, ascorbic acid (10 µM) and hydrogen peroxide (H2O2, 25 µM) were used as positive controls for cell viability, TAC and TOS analysis, respectively.
The cultures without BLA, MEM, or LA were studied as negative control group. 1% Triton-X was added to the culture media to provide negative control group.

For series [4], the system named is differentiated SH-SY5Y cells. Kind of series: Apoptosis detection by Hoechst 33258 staining. It counts as cell-based, human. Particulars: 25 and 50 µM co-treatment, 20 µM Aβ1-42, 24 h. As for the experimental part: Apoptosis detection by Hoechst 33258 staining: Hoechst 33258 staining was used to detect apoptotic nuclei. […] Then, cells fixed with 4% paraformaldehyde in phosphate buffered saline at 4 °C for 30 min. After washing cells with PBS, the nuclear DNAs were incubated with […] Hoechst 33258 fluorescent dye for 5 min at room temperature. Cells were observed and photographed under a fluorescence microscopy (Leica® DM IL LED).

The subject of the next series is human neuron-like cells. Put plainly: Apoptosis-Necrosis assay (Annexin V-FITC/PI flow cytometry). It counts as cell-based. The settings on record: concentration not given. As for the experimental part: Apoptosis-Necrosis assay: the frequencies of viable, apoptotic and necrotic cells were detected with the Annexin V-FITC apoptosis detection Kit I (BD Pharmingen, USA). Briefly, 5 x 10^4 cells were collected by centrifugation and cells resuspended in 500 µL of 1X binding buffer. Then, 5 µL of Annexin V-FITC and 5 µl of propidium iodide (PI 50 µg/ml) were added to the cultures and incubated 5 min in the dark. After that, cells fixed with 4% paraformaldehyde in phosphate buffered saline at 4 °C for 30 min. Cells from each well were stained according to the manufacturer's instructions and analyzed using a flow cytometer (CyFlow Cube 6, Partec, Germany). A computer system was used for data acquisition and analysis. Four different populations of cells are detected with the Annexin V-FITC kit: viable cells that are annexin negative and PI negative and express no fluorescence, early apoptotic cells that are annexin positive and PI negative and that express green fluorescence, late apoptotic/necrotic cells that are annexin positive and PI positive and that express green and orange fluorescence, necrotic cells that are annexin negative and PI positive and that express orange fluorescence (Majstorovic I, Vucevic D, Pavlovic B, Vasilijic S, Colic M. An anti-DEC-205 monoclonal antibody stimulates binding of thymocytes to rat thymic dendritic cells and promotes apoptosis of thymocytes. Cent Eur J Immunol. 2014; 39:411-418) .
BLA was considered as more able to protect the human neuron-like cells from Aβ1-42-induced necrosis and late apoptosis than LA or MEM.

Series [5] has as its system differentiated SH-SY5Y cells. Put plainly: TAC and TOS analysis in cellular model of Alzheimer's disease. It counts as cell-based, human. The settings on record: co-treatment with Aβ1-42. The method, then:
TAC and TOS analysis: the automated TAC and TOS assays were carried out by commercially available kits (Rel Assay^(R) Diagnostics, Gaziantep, Turkey) on samples from the cultures.
as §1
Figure 5 and 6 show the effects of BLA and MEM treatments on TAC and TOS levels in cellular model of Alzheimer's disease, respectively.

Each structure is given as a SMILES string. Like-named read-outs stand apart in the source and are kept apart here. Marks after values point to notes of the source that are not given here.

The source of these data is patent EP3495372B1 (priority 2017, dated 2019).

For `O=C(O)CCCCC1CCSS1` (centres unmarked) [LA, 1,2-dithiolane-3-pentanoic acid], the “Max. Aggregation (%)” value in series [1] (25 µM) was 55.8* %; in series [1] (50 µM), 47.8* %; in series [1] (100 µM), 44.6* %. The “Shape change (%)” value in series [1] (25 µM) is reported as 17.4* %; in series [1] (50 µM) it was 14.5* %; in series [1] (100 µM), 13.8* %. The entries for the “Slope (%)” value in series [1] (25 µM), in series [1] (50 µM) and in series [1] (100 µM) were 69.8* %, 61.4* % and 58.0* %, respectively. Further, the “frequencies of sister chromatid exchanges (SCEs)” value in series [2] is given as “not higher than the control group”. For the same molecule, the “increase in the cell viability (inhibited LDH release)” value in series [3] (25 µM) is listed as 53.05%; in series [3] (50 µM), 58.68%; in series [3] (100 µM) it was 59.86%. The “nuclear integrity and apoptosis by Aβ1-42 (Hoechst 33258)” value in series [4] is “protected nuclear integrity and inhibited apoptosis”. For the same molecule, the “decreased the necrotic cell percentage by Aβ1-42” value with human neuron-like cells is listed as 61.67%. Besides, the “Aβ1-42-induced decreases of TAC and increases of TOS levels” value in series [5] is reported as “modulated”.

Take `CC1(C)C2CC3OB(CNC(=O)CCCC[C@H]4CCSS4)O[C@]3(C)C1C2` (stereo partly drawn) [BLA, 5-((S)-1,2-dithiolan-3-yl)-N-(((3aR)-3a,5,5-trimethylhexahydro-4,6-methanobenzo[d][1,3,2]dioxaborol-2-yl)methyl)pentanamide]: the results for the “Max. Aggregation (%)” value in series [1] (25 µM), in series [1] (50 µM) and in series [1] (100 µM) were 49,8* %, 41.3* % and 32.2* %, respectively. Also, the figures for the “Shape change (%)” value in series [1] (25 µM), in series [1] (50 µM) and in series [1] (100 µM) were 12.1* %, 10.3* % and 6.8* %, respectively. Further, the entries for the “Slope (%)” value in series [1] (25 µM), in series [1] (50 µM) and in series [1] (100 µM) were 66.7* %, 51.5* % and 47.3* %, respectively. In series [2] (versus control group, P > 0.05), the “frequencies of sister chromatid exchanges (SCEs)” value is given as “not significant differences”. Also, the “increase in the cell viability (inhibited LDH release)” value in series [3] (25 µM) is 62.91%; in series [3] (50 µM), 67.37%; in series [3] (100 µM), 70.65%. Also, the “nuclear integrity and apoptosis by Aβ1-42 (Hoechst 33258)” value in series [4] was “protected nuclear integrity and inhibited apoptosis”. In addition, the “decreased the necrotic cell percentage by Aβ1-42” value with human neuron-like cells stood at 68.38%. Moreover, the “Aβ1-42-induced decreases of TAC and increases of TOS levels” value in series [5] was “modulated”.
